Measurements as given in paper PMC5218480 (PLoS ONE, 2017).

System: MV-4-11 cells
Test: Gene expression microarray analysis (Affymetrix PrimeView) and GSEA
Type: cell-based, human
Set-up: RFU PODN (11730768_x_at) / Fold change /veh PODN (11730768_x_at) / RFU LINC00158 (11744669_a_at) / Fold change /veh LINC00158 (11744669_a_at) / RFU DUSP10 (11751237_a_at) / Fold change /veh DUSP10 (11751237_a_at) / RFU ID3 (11757404_x_at) / Fold change /veh ID3 (11757404_x_at) / RFU PLEKHG5 (11737974_s_at) / Fold change /veh PLEKHG5 (11737974_s_at) / RFU LRRC4B (11730491_at) / Fold change /veh LRRC4B (11730491_at) / RFU GIMAP4 (11747438_a_at) / Fold change /veh GIMAP4 (11747438_a_at) / RFU KRT8 (11758183_x_at) / Fold change /veh KRT8 (11758183_x_at) / RFU CNN1 (11734310_a_at) / Fold change /veh CNN1 (11734310_a_at) / RFU VPS37D (11726825_at) / Fold change /veh VPS37D (11726825_at) / RFU C10orf10 (11716522_x_at) / Fold change /veh C10orf10 (11716522_x_at) / RFU KIR2DL2 /// KIR2DL4 /// KIR2DL5A /// KIR2DL5B /// KIR2DS1 /// KIR2DS2 /// KIR2DS3 /// KIR2DS4 /// KIR3DL3 /// KIR3DL3 /// KIR3DS1 (11738374_at) / Fold change /veh KIR2DL2 /// KIR2DL4 /// KIR2DL5A /// KIR2DL5B /// KIR2DS1 /// KIR2DS2 /// KIR2DS3 /// KIR2DS4 /// KIR3DL3 /// KIR3DL3 /// KIR3DS1 (11738374_at) / RFU C1QL1 (11718748_at) / Fold change /veh C1QL1 (11718748_at) / RFU TMPRSS4 (11747572_a_at) / Fold change /veh TMPRSS4 (11747572_a_at) / RFU HAMP (11756126_x_at) / Fold change /veh HAMP (11756126_x_at) / RFU RNFT2 (11725882_a_at) / Fold change /veh RNFT2 (11725882_a_at) / RFU NR4A2 (11747474_a_at) / Fold change /veh NR4A2 (11747474_a_at) / RFU ABCC12 (11746883_a_at) / Fold change /veh ABCC12 (11746883_a_at) / RFU TMEM136 (11760407_x_at) / Fold change /veh TMEM136 (11760407_x_at) / RFU CLDN22 /// WWC2 (11732394_at) / Fold change /veh CLDN22 /// WWC2 (11732394_at) / RFU HLA-DPB1 (11760878_x_at) / Fold change /veh HLA-DPB1 (11760878_x_at) / RFU SPINT1 (11716480_a_at) / Fold change /veh SPINT1 (11716480_a_at) / RFU GAP43 (11754022_s_at) / Fold change /veh GAP43 (11754022_s_at) / RFU A4GNT (11735810_at) / Fold change /veh A4GNT (11735810_at) / RFU PRB3 (11715151_x_at) / Fold change /veh PRB3 (11715151_x_at) / RFU TUBB4B (11761932_at) / Fold change /veh TUBB4B (11761932_at) / RFU CAPN14 (11732068_a_at) / Fold change /veh CAPN14 (11732068_a_at) / RFU TMCC2 (11721928_a_at) / Fold change /veh TMCC2 (11721928_a_at) / RFU IRGQ (11745062_a_at) / Fold change /veh IRGQ (11745062_a_at) / RFU FAM174B (11720279_a_at) / Fold change /veh FAM174B (11720279_a_at) / RFU TMPRSS4 (11748680_a_at) / Fold change /veh TMPRSS4 (11748680_a_at) / RFU FAM212B (11763350_a_at) / Fold change /veh FAM212B (11763350_a_at) / RFU PLEKHG5 (11743358_a_at) / Fold change /veh PLEKHG5 (11743358_a_at) / RFU ZSCAN30 (11745921_a_at) / Fold change /veh ZSCAN30 (11745921_a_at) / RFU CMKLR1 (11741424_a_at) / Fold change /veh CMKLR1 (11741424_a_at) / RFU LOC101060620 /// MAPK8IP1 (11723275_at) / Fold change /veh LOC101060620 /// MAPK8IP1 (11723275_at) / RFU SPTSSB (11747773_x_at) / Fold change /veh SPTSSB (11747773_x_at) / RFU PRSS12 (11739890_at) / Fold change /veh PRSS12 (11739890_at) / RFU BIN1 (11741810_x_at) / Fold change /veh BIN1 (11741810_x_at) / RFU WNT11 (11732464_a_at) / Fold change /veh WNT11 (11732464_a_at) / RFU C10orf10 (11716521_a_at) / Fold change /veh C10orf10 (11716521_a_at) / RFU C5orf56 (11738089_at) / Fold change /veh C5orf56 (11738089_at) / RFU CYB561 (11721691_x_at) / Fold change /veh CYB561 (11721691_x_at) / RFU ANKRD19P (11752326_a_at) / Fold change /veh ANKRD19P (11752326_a_at) / RFU OR2T12 /// OR2T33 /// OR2T8 (11738714_s_at) / Fold change /veh OR2T12 /// OR2T33 /// OR2T8 (11738714_s_at) / RFU VCAN (11748164_a_at) / Fold change /veh VCAN (11748164_a_at) / RFU JSRP1 (11732532_at) / Fold change /veh JSRP1 (11732532_at) / RFU KRTAP10-11 (11738290_x_at) / Fold change /veh KRTAP10-11 (11738290_x_at) / RFU MYO3A (11730013_a_at) / Fold change /veh MYO3A (11730013_a_at) / RFU EBF3 (11725865_a_at) / Fold change /veh EBF3 (11725865_a_at) / RFU CAMK2N1 (11719241_x_at) / Fold change /veh CAMK2N1 (11719241_x_at) / RFU C5orf56 (11738088_a_at) / Fold change /veh C5orf56 (11738088_a_at) / RFU OLFML3 (11715873_a_at) / Fold change /veh OLFML3 (11715873_a_at) / RFU LOC100653217 /// NTM (11731650_a_at) / Fold change /veh LOC100653217 /// NTM (11731650_a_at) / RFU MAPK11 (11762145_a_at) / Fold change /veh MAPK11 (11762145_a_at) / RFU FIZ1 (11724087_x_at) / Fold change /veh FIZ1 (11724087_x_at) / RFU OASL (11726364_x_at) / Fold change /veh OASL (11726364_x_at) / RFU SOX15 (11748057_x_at) / Fold change /veh SOX15 (11748057_x_at) / RFU CD79A (11719716_a_at) / Fold change /veh CD79A (11719716_a_at) / RFU HIST1H1D (11736915_at) / Fold change /veh HIST1H1D (11736915_at) / RFU CASKIN2 (11723855_a_at) / Fold change /veh CASKIN2 (11723855_a_at) / RFU LOC730098 (11760151_x_at) / Fold change /veh LOC730098 (11760151_x_at) / RFU OR4N2 (11742367_at) / Fold change /veh OR4N2 (11742367_at) / RFU PRRT2 (11749266_a_at) / Fold change /veh PRRT2 (11749266_a_at) / RFU SNX32 (11753110_a_at) / Fold change /veh SNX32 (11753110_a_at) / RFU CDHR5 (11726645_a_at) / Fold change /veh CDHR5 (11726645_a_at) / RFU RCAN1 (11760418_a_at) / Fold change /veh RCAN1 (11760418_a_at) / RFU FAM167A (11723789_a_at) / Fold change /veh FAM167A (11723789_a_at) / RFU FAM26E (11764081_at) / Fold change /veh FAM26E (11764081_at) / RFU ISYNA1 (11749810_s_at) / Fold change /veh ISYNA1 (11749810_s_at) / RFU ACY1 (11761880_at) / Fold change /veh ACY1 (11761880_at) / RFU 11764098_at / Fold change /veh 11764098_at / RFU SAMD14 (11745864_x_at) / Fold change /veh SAMD14 (11745864_x_at) / RFU NPB (11741838_a_at) / Fold change /veh NPB (11741838_a_at) / RFU TMPRSS6 (11731388_a_at) / Fold change /veh TMPRSS6 (11731388_a_at) / RFU KRTAP10-2 (11738614_at) / Fold change /veh KRTAP10-2 (11738614_at) / RFU ARHGAP8 /// PRR5-ARHGAP8 (11727945_x_at) / Fold change /veh ARHGAP8 /// PRR5-ARHGAP8 (11727945_x_at) / RFU KRTAP5-7 /// NADSYN1 (11734609_at) / Fold change /veh KRTAP5-7 /// NADSYN1 (11734609_at) / RFU RASL12 (11751679_a_at) / Fold change /veh RASL12 (11751679_a_at) / RFU CDKN2B (11736163_a_at) / Fold change /veh CDKN2B (11736163_a_at) / RFU PRF1 (11729649_at) / Fold change /veh PRF1 (11729649_at) / RFU, ZNF638 /// ZNF638-IT1 / Fold change vs veh, ZNF638 /// ZNF638-IT1 / RFU, PANK3 / Fold change vs veh, PANK3 / RFU, SH3YL1 / Fold change vs veh, SH3YL1 / RFU, ZEB2 / Fold change vs veh, ZEB2 / RFU, NRIP1 / Fold change vs veh, NRIP1 / RFU, PTTG1IP / Fold change vs veh, PTTG1IP / RFU, CAPN2 / Fold change vs veh, CAPN2 / RFU, MED14 / Fold change vs veh, MED14 / RFU, SNORA58 / Fold change vs veh, SNORA58 / RFU, C1orf63 / Fold change vs veh, C1orf63 / RFU, LRRFIP1 / Fold change vs veh, LRRFIP1 / RFU, NDUFAF7 / Fold change vs veh, NDUFAF7 / RFU, SLC12A2 / Fold change vs veh, SLC12A2 / RFU, IBTK / Fold change vs veh, IBTK / RFU, ESF1 / Fold change vs veh, ESF1 / Fold change vs veh, TMEM50B / RFU, TAOK1 / Fold change vs veh, TAOK1 / RFU, ACBD3 / Fold change vs veh, ACBD3 / RFU, TMA16 / Fold change vs veh, TMA16 / RFU, RWDD3 / Fold change vs veh, RWDD3 / RFU, BCAT1 / Fold change vs veh, BCAT1 / RFU, EDEM3 / Fold change vs veh, EDEM3 / RFU, TMEM33 / Fold change vs veh, TMEM33 / RFU, WDR75 / Fold change vs veh, WDR75 / RFU, AHCTF1 / Fold change vs veh, AHCTF1 / RFU, TFRC / Fold change vs veh, TFRC / RFU, ZDHHC17 / Fold change vs veh, ZDHHC17 / RFU, NOM1 / Fold change vs veh, NOM1 / RFU, ARL8B / Fold change vs veh, ARL8B / RFU, ZBTB11 / Fold change vs veh, ZBTB11 / RFU, TAMM41 / Fold change vs veh, TAMM41 / RFU, KIAA1704 /// LOC100996395 / Fold change vs veh, KIAA1704 /// LOC100996395 / RFU, ING1 / Fold change vs veh, ING1 / RFU, TRMT61B / Fold change vs veh, TRMT61B / RFU, FUBP3 / Fold change vs veh, FUBP3 / RFU, TP53 / Fold change vs veh, TP53 / RFU, TNKS2 / Fold change vs veh, TNKS2 / RFU, ZFP14 / Fold change vs veh, ZFP14 / RFU, ACTR2 / Fold change vs veh, ACTR2 / RFU, PPP3R1 / Fold change vs veh, PPP3R1 / RFU, PIK3R1 / Fold change vs veh, PIK3R1 / RFU, HNRNPA1 / Fold change vs veh, HNRNPA1 / RFU, RNF170 / Fold change vs veh, RNF170 / RFU, ZNF28 / Fold change vs veh, ZNF28 / RFU, RNGTT / Fold change vs veh, RNGTT / RFU, OGT / Fold change vs veh, OGT / RFU, BRD1 / Fold change vs veh, BRD1 / RFU, MARS / Fold change vs veh, MARS / RFU, ZNF655 / Fold change vs veh, ZNF655 / RFU, FAHD1 / Fold change vs veh, FAHD1 / RFU, BDP1 / Fold change vs veh, BDP1 / RFU, LRRCC1 / Fold change vs veh, LRRCC1 / RFU, ARID1A / Fold change vs veh, ARID1A / RFU, ZNF146 / Fold change vs veh, ZNF146 / RFU, ZNF330 / Fold change vs veh, ZNF330 / RFU, GPN3 / Fold change vs veh, GPN3 / RFU, C9orf123 / Fold change vs veh, C9orf123 / RFU, N4BP2L2 / Fold change vs veh, N4BP2L2 / RFU, ARFIP1 / Fold change vs veh, ARFIP1 / RFU, FAM179B / Fold change vs veh, FAM179B / RFU, BCL10 / Fold change vs veh, BCL10 / RFU, UHRF1BP1L / Fold change vs veh, UHRF1BP1L / RFU, BET1 / Fold change vs veh, BET1 / RFU, CNOT2 / Fold change vs veh, CNOT2 / RFU, ZNF268 / Fold change vs veh, ZNF268 / Fold change vs veh, ZNF507 / RFU, DGCR2 / Fold change vs veh, DGCR2 / RFU, WDSUB1 / Fold change vs veh, WDSUB1 / Fold change vs veh, HSP90B1 /// MIR3652 / RFU, ADSS / Fold change vs veh, ADSS / RFU, GK / Fold change vs veh, GK / RFU, ZNF148 / Fold change vs veh, ZNF148 / RFU, TAF9 / Fold change vs veh, TAF9 / RFU, SLC1A5 / Fold change vs veh, SLC1A5 / RFU, SLMO2 / Fold change vs veh, SLMO2 / RFU, ABCC4 / Fold change vs veh, ABCC4 / RFU, LOC101060439 /// RAP1B / Fold change vs veh, LOC101060439 /// RAP1B / RFU, RFX7 / Fold change vs veh, RFX7 / RFU, GTPBP10 / Fold change vs veh, GTPBP10 / RFU, CNEP1R1 / Fold change vs veh, CNEP1R1 / RFU, BIVM-ERCC5 /// ERCC5 / Fold change vs veh, BIVM-ERCC5 /// ERCC5 / RFU, ILF3 / Fold change vs veh, ILF3 / RFU 11762660_at / Fold change /veh 11762660_at / RFU VCAN (11757783_s_at) / Fold change /veh VCAN (11757783_s_at) / RFU DDX43 (11728927_at) / Fold change /veh DDX43 (11728927_at) / RFU KRT8 (11758188_x_at) / Fold change /veh KRT8 (11758188_x_at) / RFU NKD1 (11759106_at) / Fold change /veh NKD1 (11759106_at) / RFU SRD5A1 (11742802_a_at) / Fold change /veh SRD5A1 (11742802_a_at) / RFU TPSAB1 /// TPSB2 (11721975_s_at) / Fold change /veh TPSAB1 /// TPSB2 (11721975_s_at) / RFU GSTM3 (11746129_a_at) / Fold change /veh GSTM3 (11746129_a_at) / RFU IL23R (11737362_x_at) / Fold change /veh IL23R (11737362_x_at) / RFU TMEM51 (11727254_a_at) / Fold change /veh TMEM51 (11727254_a_at) / RFU PIWIL2 (11732686_x_at) / Fold change /veh PIWIL2 (11732686_x_at) / RFU ORM1 (11744905_x_at) / Fold change /veh ORM1 (11744905_x_at) / RFU CCDC152 (11743942_at) / Fold change /veh CCDC152 (11743942_at) / RFU ECM1 (11717891_a_at) / Fold change /veh ECM1 (11717891_a_at) / RFU IL23R (11748794_a_at) / Fold change /veh IL23R (11748794_a_at) / RFU TNFAIP8L3 (11732012_x_at) / Fold change /veh TNFAIP8L3 (11732012_x_at) / RFU MBOAT4 (11741988_at) / Fold change /veh MBOAT4 (11741988_at) / RFU 11764193_at / Fold change /veh 11764193_at / RFU TMEM53 (11763286_at) / Fold change /veh TMEM53 (11763286_at) / RFU MAGEB2 (11727129_at) / Fold change /veh MAGEB2 (11727129_at) / RFU TMEM200A (11744735_a_at) / Fold change /veh TMEM200A (11744735_a_at) / RFU CCDC152 (11751479_a_at) / Fold change /veh CCDC152 (11751479_a_at) / RFU FAM211A (11726209_a_at) / Fold change /veh FAM211A (11726209_a_at) / RFU RGS16 (11746705_a_at) / Fold change /veh RGS16 (11746705_a_at) / RFU VCAN (11755009_s_at) / Fold change /veh VCAN (11755009_s_at) / RFU RHOB (11743442_s_at) / Fold change /veh RHOB (11743442_s_at) / RFU RGS16 (11720943_a_at) / Fold change /veh RGS16 (11720943_a_at) / RFU RGS16 (11720944_at) / Fold change /veh RGS16 (11720944_at) / RFU, VPS4B / Fold change vs veh, VPS4B / RFU, CREB1 / Fold change vs veh, CREB1 / RFU, DNAJC13 / Fold change vs veh, DNAJC13 / RFU, GNAQ / Fold change vs veh, GNAQ / RFU, CDK5R1 / Fold change vs veh, CDK5R1 / RFU, ZRANB3 / Fold change vs veh, ZRANB3 / RFU, CUL4A / Fold change vs veh, CUL4A / RFU, CCNY / Fold change vs veh, CCNY / RFU, UFL1 / Fold change vs veh, UFL1 / RFU, COG3 / Fold change vs veh, COG3 / RFU, DIAPH2 / Fold change vs veh, DIAPH2 / RFU, SKA2 / Fold change vs veh, SKA2 / RFU, AFF3 / Fold change vs veh, AFF3 / RFU, LMF1 / Fold change vs veh, LMF1 / RFU, IPO11 / Fold change vs veh, IPO11 / RFU, DFFB / Fold change vs veh, DFFB / RFU, FOXP1 / Fold change vs veh, FOXP1 / RFU, CARD8 / Fold change vs veh, CARD8 / RFU, STRN3 / Fold change vs veh, STRN3 / RFU, ADK / Fold change vs veh, ADK / RFU, RASSF2 / Fold change vs veh, RASSF2 / RFU, WIPF1 / Fold change vs veh, WIPF1 / RFU, LARP1B / Fold change vs veh, LARP1B / RFU, RASA1 / Fold change vs veh, RASA1 / RFU, RB1 / Fold change vs veh, RB1 / RFU, PPFIA1 / Fold change vs veh, PPFIA1 / RFU, MAT2A / Fold change vs veh, MAT2A / RFU, CCT5 / Fold change vs veh, CCT5 / RFU, WDR92 / Fold change vs veh, WDR92 / RFU, CUX1 / Fold change vs veh, CUX1 / RFU, TTC7A / Fold change vs veh, TTC7A / RFU, TMEM135 / Fold change vs veh, TMEM135 / RFU, DEPTOR / Fold change vs veh, DEPTOR / RFU, CPM / Fold change vs veh, CPM / RFU, DNAJB6 / Fold change vs veh, DNAJB6 / RFU, CACNA2D3 / Fold change vs veh, CACNA2D3 / RFU, DTX4 / Fold change vs veh, DTX4 / RFU, TFCP2 / Fold change vs veh, TFCP2 / RFU, GMCL1 /// GMCL1P1 / Fold change vs veh, GMCL1 /// GMCL1P1 / RFU, AEBP2 / Fold change vs veh, AEBP2 / RFU, SNHG1 /// SNORD22 /// SNORD25 /// SNORD26 /// SNORD27 /// SNORD28 /// SNORD29 /// SNORD31 / Fold change vs veh, SNHG1 /// SNORD22 /// SNORD25 /// SNORD26 /// SNORD27 /// SNORD28 /// SNORD29 /// SNORD31 / Fold change (Aza/veh), C12orf56 (ProbeSet 11735607_a_at) / Fold change (ACY-1035/veh), C12orf56 (ProbeSet 11735607_a_at) / Fold change (Aza/veh), FGFR1OP (ProbeSet 11751329_s_at) / Fold change (ACY-1035/veh), FGFR1OP (ProbeSet 11751329_s_at) / Fold change (Aza/veh), VPS36 (ProbeSet 11739960_a_at) / Fold change (ACY-1035/veh), VPS36 (ProbeSet 11739960_a_at) / RFU SYPL1 (11715823_x_at) / Fold change /veh SYPL1 (11715823_x_at) / RFU IGFBP7 (11715501_s_at) / Fold change /veh IGFBP7 (11715501_s_at) / RFU REEP3 (11722064_at) / Fold change /veh REEP3 (11722064_at) / RFU IGLL1 (11728026_x_at) / Fold change /veh IGLL1 (11728026_x_at): dose or concentration left out as unconfirmed
Conditions: ProbeSet 11718977_a_at; LIST B

Nc1ccc(-c2cccs2)cc1NC(=O)c1ccc2c(c1)cc(C1CC1)n2CCN1CCOCC1 [ACY-1035]
RFU, CAPN2: 162.48 RFU
